Converted amounts (≈) assume the structure as drawn. Where two headings read alike, the source gives them in different places.
Assays:
[1] = system: Klebsiella pneumonia MTCC 618; experiment: In vitro antibacterial activity (CLSI M07-A10 dilution), MIC; assay type: cell-based; details: Klebsiella pneumoniae, MTCC618
[2] = system: Enterococcus faecium ATCC 35667; experiment: as above; assay type: cell-based; details: ATCC35667
[3] = system: Enterococcus faecium ATCC 51559 (VRE resistant); experiment: as above; assay type: cell-based
[4] = system: Staphylococcus aureus ATCC 29213; experiment: as above; assay type: cell-based; details: ATCC29213
[5] = system: Staphylococcus epidermidis; experiment: as above; assay type: cell-based
[6] = system: Escherichia coli MTCC 443; experiment: as above; assay type: cell-based; details: MTCC443
[7] = system: Pseudomonas aeruginosa MTCC 741; experiment: as above; assay type: cell-based; details: MTCC741
[8] = system: Staphylococcus aureus ATCC BAA-1556 (MERSA resistant); experiment: as above; assay type: cell-based; details: ATCCBAA1556
[9] = system: Bacillus subtilis MTCC 441; experiment: as above; assay type: cell-based; details: MTCC441
DNA gyrase from E. coli = biological target: T1, DNA gyrase from E. coli (Escherichia coli, UniProt P0AES4+P0AES6); experiment: Inhibitory activity on E. coli DNA gyrase (Inspiralis supercoiling assay); assay type: biochemical
T1 construct: purchased Inspiralis
Experimental: Inhibitory potencies were investigated utilizing the Inspiralis assay on streptavidin-coated 96-well microtiter plates. First, the plates were rehydrated with buffer (20 mM Tris-HCl with pH 7.6, 0.01% w/v BSA, 0.05% v/v Tween 20, 137 mM NaCl) and the biotinylated oligonucleotide was then immobilized. After washing off the unbound oligonucleotide, the enzyme test was performed. […] Reaction solutions were incubated at 37° C. for 30 min. After that, the TF buffer (50 mM NaOAc with pH 5.0, 50 mM NaCl and 50 mM MgCl2) was added to terminate the enzymatic reaction. After additional incubation for 30 min at rt, during which biotinoligonucleotide-plasmid triplex was formed, the unbound plasmid was washed off using TF buffer and SybrGOLD in T10 buffer (10 mM Tris HCl with pH 8.0 and 1 mM EDTA) was added. The fluorescence was measured with a microplate reader (BioTek Synergy H4, excitation: 485 nm, emission: 535 nm). […] GraphPad Prism software was used to calculate the IC50 values. The result is given as the average value of three independent measurements.

[10] = system: Mycobacterium tuberculosis H37Rv strain; experiment: Anti-tubercular alamar blue microplate MIC assay; assay type: cell-based; details: 168 h, M. tuberculosis H37Rv, 7 days at 37° C., read-out: anti-mycobacterial activity (MIC)

T1 sequence (P0AES4 whole entry, one chain of several): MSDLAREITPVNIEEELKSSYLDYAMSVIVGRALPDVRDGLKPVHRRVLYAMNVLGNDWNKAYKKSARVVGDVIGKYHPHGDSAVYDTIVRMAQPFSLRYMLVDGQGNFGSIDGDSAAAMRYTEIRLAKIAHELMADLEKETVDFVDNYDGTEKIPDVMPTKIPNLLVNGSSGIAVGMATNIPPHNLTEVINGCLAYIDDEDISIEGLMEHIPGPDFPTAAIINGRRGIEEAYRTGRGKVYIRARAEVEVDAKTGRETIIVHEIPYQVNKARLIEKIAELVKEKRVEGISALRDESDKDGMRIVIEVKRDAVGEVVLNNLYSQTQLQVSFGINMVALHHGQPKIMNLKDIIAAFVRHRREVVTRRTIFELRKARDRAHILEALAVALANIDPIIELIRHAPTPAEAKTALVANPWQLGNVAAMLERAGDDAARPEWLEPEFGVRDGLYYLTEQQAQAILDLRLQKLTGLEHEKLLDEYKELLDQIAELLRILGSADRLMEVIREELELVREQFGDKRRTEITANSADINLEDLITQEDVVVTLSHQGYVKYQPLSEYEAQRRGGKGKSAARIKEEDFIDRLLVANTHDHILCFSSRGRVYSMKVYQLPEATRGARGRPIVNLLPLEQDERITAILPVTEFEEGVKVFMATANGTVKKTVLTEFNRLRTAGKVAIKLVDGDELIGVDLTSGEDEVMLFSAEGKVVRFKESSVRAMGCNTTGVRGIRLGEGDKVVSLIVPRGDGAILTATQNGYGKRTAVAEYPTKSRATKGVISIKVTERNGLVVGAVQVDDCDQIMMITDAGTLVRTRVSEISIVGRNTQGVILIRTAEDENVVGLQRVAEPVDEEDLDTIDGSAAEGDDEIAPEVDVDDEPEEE

SMILES | MIC [1] | MIC [2] | MIC [3] | MIC [4] | MIC [5] | MIC [6] | MIC ([1]; Klebsiella pneumonia MTCC 618, read-out: MIC) | MIC [7] | MIC [8] | MIC [9] | IC50 (DNA gyrase from E. coli) | MIC [10]
CN[C@H](CC(C)C)C(=O)N[C@H]1C(=O)N[C@@H](CC(N)=O)C(=O)N[C@H]2C(=O)N[C@H]3C(=O)N[C@H](C(=O)N[C@H](C(=O)O)c4cc(O)cc(O)c4-c4cc3ccc4O)[C@H](O)c3ccc(c(Cl)c3)Oc3cc2cc(c3O[C@@H]2O[C@H](CO)[C@@H](O)[C@H](O)[C@H]2O[C@H]2C[C@](C)(N)[C@H](O)[C@H](C)O2)Oc2ccc(cc2Cl)[C@H]1O [Vancomycin, reference compound] | > 128 µg/mL |  |  |  |  |  |  |  |  |  |  | 
CCC(=O)Nc1ccc2cc(-c3cc(C(=O)O)ccc3CN(C)C3CCCCC3)c(=O)oc2c1 [Compound 12, 4-((cyclohexyl(methyl)amino)methyl)-3-(2-oxo-7-propionamido-2H-chromen-3-yl)benzoic acid] |  | 0.75 µg/mL (≈ 1.62 µM) | 1 µg/mL (≈ 2.16 µM) | 2 µg/mL (≈ 4.32 µM) | 1 µg/mL (≈ 2.16 µM) | 4 µg/mL (≈ 8.65 µM) | 1 µg/mL (≈ 2.16 µM) | 1 µg/mL (≈ 2.16 µM) | 4 µg/mL (≈ 8.65 µM) | 0.75 µg/mL (≈ 1.62 µM) | 78 nM | 8 µg/mL (≈ 17.3 µM)

From patent publication US11897859B1, “Coumarin compounds as antibacterial agents” (KING FAISAL UNIVERSITY, priority 2023, dated 2024)
